Reference: patent US7981893B2, “Heteroaryl compounds, compositions thereof, and methods of treatment therewith” (Signal Pharmaceuticals, LLC, priority 2006, dated 2011)

What was measured:
Format in all cases: biochemical
mTOR = target: T1, mTOR (Homo sapiens, UniProt P42345); assay: mTOR HTR-FRET Assay; settings: HTR-FRET screening assay, GST-p70S6 kinase fragment substrate
T1 construct: Dilute TOR fraction 1:14 in “Simple TOR Buffer”
Protocol: The following is an example of an assay that can be used to determine the mTOR inhibitory activity of a test compound. Reagents are prepared as follows:
“Simple TOR buffer” (used to dilute high glycerol TOR fraction): 10 mM Tris pH 7.4, 100 mM NaCl, 0.1% Tween-20, 1 mM DTT (from 1M stock frozen at −20° C. just prior to use). For convenience a large quantity of “Simple TOR buffer” w/o DTT can be stored at 4° C. It can be brought to room temperature and DTT added just prior to dilution of TOR fraction.
5×KB/5×Mn/5×ATP solution (used to dilute substrate GST-p70S6kin 81 a.a. just prior to use) (40 ml screen quantity shown):
Enzyme solution: Dilute TOR fraction 1:14 in “Simple TOR Buffer”. For current lot that is 640 μg/ml TOR fraction diluted 14× to yield 45.7 μg/ml TOR in buffer (i.e. 7.85 ml TOR pooled fraction+102.1 ml Simple TOR buffer=110 ml 14× diluted TOR fraction). Each Enzyme Lot must be QC'd prior to assay.
Substrate solution: This may be prepared just prior to assay if preferred. Dilute 5.3 mg/ml GST-p70S6kinase fragment stock to 3.5 μg/ml (97 nM) working stock in 5×KB/5×Mn/5×ATP solution (i.e. 26.41 μL (5.3 mg/ml) GST-p70S6+40 ml 5×KB/5×Mn/5×ATP=40 ml 3.5 μg/ml (97 nM)).
Assay Buffer (for dilution of Antibodies used in Antibody Detection Reagent):
Antibody Detection Reagent (this reagent should be made just prior to addition to Assay Plates):
Using PlateTrak program (Screen) or Matrix Pipettor (SAR), 19.5 μL of diluted TOR fraction is added to assay plate in all test, reference or positive control wells. 19.5 μL of “Simple TOR buffer” is added to all negative control wells. If treating multiple plates with the same compounds, can increase volume of enzyme to multiples of 19.5 μL in a tall 384 well polypropylene plate.
Using EP3, 0.5 μl of test, reference or control DMSO is added to each well with mixing. Plates are incubated for 30 minutes at room temperature.
Using PlateTrak program (Screen) or Matrix Pipettor (SAR) 5 μL of 5×KB/5×Mn/5×ATP/5× substrate solution is added to each well of the assay plate to start the reaction. The solutions are mixed well and incubated for 2 hours at room temperature.
Using PlateTrak program (Screen) or Matrix Pipettor (SAR) 5 μL of 60 mM EDTA is added to stop the reaction. The solutions are mixed well and allowed to sit for 15-20 minutes before the next step.
Using PlateTrak program (Screen) or Matrix Pipettor (SAR) 10 μl of Antibody Detection Reagent is added. The solutions are mixes well and incubated for 5 hours to O/N to allow antibodies to form complexes with phosphorylated substrate.
Plates are read on AnalystHT using protocol Multi-Method protocol.

PKCθ = target: T2, PKCθ (Homo sapiens, UniProt Q04759); assay: PKCθ IMAP Assay; settings: IMAP fluorescence polarization screening assay, 35 μM ATP
T2 construct: purchased Invitrogen
Outline: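 IMAP fluorescence polarization with 0.5 nM PKCθ, 100 nM FAM-AKRRRLSSLRA, 35 μM ATP, 2.5% DMSO, pH 7.6 HEPES with phosphatidyl serine/diacylglycerol. Compound pre-incubated with enzyme 45 min; reaction 60 min, then binding beads ≥30 min before FP read.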

Syk = target: T3, Syk (Homo sapiens, UniProt P43405); assay: Syk HTRF Assay; settings: HTRF screening assay
T3 construct: purchased Carna Biosciences 08-176
Protocol: 5 μl/well DMSO is added to Column 2 Wells A-O and 29.5 μl to well P2 of Greiner 384-well polypropylene plate. 20 μl/well DMSO is added to Columns 1 and 3-12.
25 mM compound solutions are prepared by the addition of 25 μl of 30 mM compound to Column 2 and 0.5 μl 30 mM reference control to well P2.
Serial dilution is then performed by the following steps: (i) compounds in Column 2 are mixed by pipetting 20 μl up and down 6×; (ii) 10 μl/well compounds in DMSO are transferred from one column to the next column for Columns 2-11; (iii) wells are mixed by pipetting 20 μl up and down 6×; (iv) tips washed 3×25 μl DMSO, 2×25 μl next DMSO.
The following buffers are prepared:
Dilution Buffer: 50 mM HEPES pH 7.6; 1 mM DTT; 10 mM MgCl2; 0.01% Triton X100; 0.01% BSA; 0.1 mM EDTA.
Enzyme Mix in Dilution Buffer: 8.621 ng/ml Syk (Carna Biosciences 08-176).
Start Mix in Dilution Buffer: 87.5 μM ATP; 80 nM Substrate Peptide (American Peptide Company 332722).
14.5 μl/well Enzyme Mix or Dilution Buffer (Background Controls) is added to Costar 384-well black plates.
Compound addition and mixture is performed by the following steps: (i) 0.5 μl/well DMSO/compounds in DMSO transferred from Greiner 384-well polypropylene plate to left half of assay plate containing 14.5 μl/well Enzyme Mix and Dilution Buffer; (ii) Mix by pipetting 10 μl up and down 4×; (iii) tips are washed 4×10 μl in DMSO, 2×20 μl in other DMSO; (iv) steps i-iii are repeated with transfer to right half of assay plate; (v) steps i-iv are repeated with each compound/assay plate until all plates are completed.
10 μl/well Start Mix is added and incubated at room temperature on shaker for 2 minutes (1 hour total reaction time).
Stop Solution in Dilution Buffer: 120 mM EDTA
Antibody Mix in Dilution Buffer: 4.86 μg/ml DyLight 647 Streptavidin (Pierce 21824); 1 μg/ml Lance Eu-Anti-Phosphotyrosine (PerkinElmer AD0069).
5 μl/well[…] is added and incubated at room temperature on shaker for 2 minutes.
[…] Antibody Mix is added and Incubated at room temperature on shaker for 2 minutes (4 hours to overnight total time).
Plates are read at 665 nm and 620 nm emission on Analyst GT protocol HTRF_SP_A or EnVision protocol Steve's TR-FRET.

T2 sequence (Q04759 whole entry): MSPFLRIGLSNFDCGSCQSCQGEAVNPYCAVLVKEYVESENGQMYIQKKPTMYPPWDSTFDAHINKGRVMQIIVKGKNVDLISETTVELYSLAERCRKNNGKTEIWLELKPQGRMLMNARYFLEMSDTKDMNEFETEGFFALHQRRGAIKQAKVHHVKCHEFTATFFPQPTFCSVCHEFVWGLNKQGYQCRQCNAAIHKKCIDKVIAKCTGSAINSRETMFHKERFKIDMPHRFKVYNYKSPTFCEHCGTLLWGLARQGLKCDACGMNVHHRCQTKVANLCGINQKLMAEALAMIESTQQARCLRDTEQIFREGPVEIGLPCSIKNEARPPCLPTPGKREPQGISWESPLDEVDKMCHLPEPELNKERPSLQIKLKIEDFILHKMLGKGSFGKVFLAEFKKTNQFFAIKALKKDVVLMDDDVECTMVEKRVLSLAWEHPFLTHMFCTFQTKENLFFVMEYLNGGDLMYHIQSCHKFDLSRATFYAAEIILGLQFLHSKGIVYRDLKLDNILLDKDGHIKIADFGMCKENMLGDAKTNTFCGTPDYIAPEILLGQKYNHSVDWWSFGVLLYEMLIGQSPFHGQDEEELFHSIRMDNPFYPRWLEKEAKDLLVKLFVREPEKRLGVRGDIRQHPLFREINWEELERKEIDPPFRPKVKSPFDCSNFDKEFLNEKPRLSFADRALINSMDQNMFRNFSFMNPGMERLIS

Which results are given for `CC(C)[C@@H](CO)n1c(=O)[nH]c2ncc(-c3cccc4ncccc34)nc21` [Compound 11, (S)-1-(1-hydroxy-3-methylbutan-2-yl)-6-(quinolin-5-yl)-1H-imidazo[4,5-b]pyrazin-2(3H)-one]?
IC50 (mTOR): > 30 µM; IC50 (PKCθ): 20.1 to 30 µM; IC50 (Syk): > 30 µM

What does the source list for `COc1ccc(C(C)C)cc1-c1cnc2[nH]c(=O)n([C@H](C)C(C)C)c2n1` [Compound 28, (R)-6-(5-isopropyl-2-methoxyphenyl)-1-(3-methylbutan-2-yl)-1H-imidazo[4,5-b]pyrazin-2(3H)-one]?
IC50 (PKCθ): 0.1 to 5 µM; IC50 (Syk): 0.1 to 5 µM

How did the IC50 (PKCθ) turn out when `COc1ccc(C(C)C)cc1-c1cnc2[nH]c(=O)n([C@H](CO)C(C)C)c2n1` [Compound 8, (S)-1-(1-hydroxy-3-methylbutan-2-yl)-6-(5-isopropyl-2-methoxyphenyl)-1H-imidazo[4,5-b]pyrazin-2(3H)-one] was run?
The IC50 was 0.1 to 5 µM.

And the IC50 (Syk)?
Its IC50 is 0.1 to 5 µM.

Which results are given for `COc1ccc(C(C)C)cc1-c1cnc2[nH]c(=O)n([C@@H](C)C(C)C)c2n1` [Compound 30, (S)-6-(5-isopropyl-2-methoxyphenyl)-1-(3-methylbutan-2-yl)-1H-imidazo[4,5-b]pyrazin-2(3H)-one]?
IC50 (PKCθ): 20.1 to 30 µM; IC50 (Syk): 0.1 to 5 µM
